# Laboratory results reported in patent publication US8088822B2, “Use of fenretinide or bioactive derivatives thereof and pharmaceutical compositions comprising the same” (priority 2008, dated 2012).
# What was measured:
# [1] = test system: NRF2 and HSF1; experiment: Western blot of NRF2 and HSF1 in nuclear extracts of NB4 cells; assay type: cell-based; conditions: 1 μM fenretinide, within 6 hours
# Source text: Transcriptome analysis of fenretinide-induced apoptosis in leukemia cell lines facilitated in-depth mining of biological information relevant to oxidative stress-mediated apoptosis, including the prediction of upstream transcription factors potentially involved in gene regulation. Of several dozens of transcriptional regulators predicted, stress-responsive transcription factors NRF2 and HSF1 are of particular interest for understanding how oxidative signaling is translated into downstream effects. NRF2 is known as a key regulator of intracellular redox balance, activating genes encoding antioxidative proteins under oxidative stress (Jaiswal, 2004; D'Autreaux and Toledano, 2007). Although HSF1 is commonly recognized as a heat-shock motivated transcription factor (Hayashida et al., 2006), it can also be activated by oxidative stress under certain circumstances (Ahn and Thiele, 2003). We therefore further investigated the temporal abundance and spatial localization of there two stress-responsive transcription factors during fenretinide-induced apoptosis in NB4 cells. […] The induction of NRF2 was extended beyond the 24 hour whereas HSF1 induction was terminated at this time point. […] Also, nuclear gathering of NRF2 was sustained beyond the 24 hour treatment whereas that of HSF1 was terminated. […]
# [2] = test system: oxidative and ER stress genes; experiment: Real-time quantitative RT-PCR of oxidative and ER stress genes in CML CD34+ cells; assay type: cell-based, human; conditions: fenretinide-treated CML CD34+ cells
# Source text: Real-time quantitative RT-PCR was preformed on ABI7900 thermocycler detection system using SYBR Green I (Applied Biosystems, Foster City, Calif.).
# Fenretinide preferentially targets more primitive leukemia stem and progenitor cells (Example 3 and Example 4), and mechanisms are involved in ROS-dependent apoptosis in a panel of leukemia cell lines. Additionally, the process of fenretinide-induced apoptosis is modulated by a large number of oxidative and ER stress genes (Example 5 and Example 6). It is of significant value to further evaluate whether fenretinide exerts similar mechanism on primitive leukemia stem and progenitor cells. Thus, we isolated CD34^+ cells from CML patients, which were subjected to real-time quantitative RT-PCR for oxidative and ER stress genes identified based on microarray analysis of fenretinide-treated K562 cells.
# [3] = test system: normal hematopoietic CD34+ cells; experiment: Apoptosis/viability of normal hematopoietic CD34+ cells; assay type: cell-based, human
# Source text: (§1) Fresh bone marrow (BM) cells were obtained from 38 patients with CML and 5 non-leukemic donors, 25 AML, 17 ALL, and 8 normal specimens with informed consent according to the Declaration of Helsinki. Approval was obtained from Institutional Review Board at the School of Medicine in Shanghai Jiao Tong University. BM mononuclear cells were isolated by Ficoll density gradient centrifugation (Shanghai Second Reagent Factory, Shanghai, China). CD34^+ Cell were selected using EasySep® Human CD34 Positive Selection kit (Stem Cell Technologies, Vancouver, BC, Canada) according to the manufacturer's instructions. The purity of CD34 cells ranged between 92 and 98% in all samples detennined by flow cytometry. The CD34^+ cells were cultured in a serum-free medium (StemPro 34; Gibco BRL, Gaithersburg, Md.) supplemented with growth factors (PeproTech, London, United Kingdom) (20). The growth factors consisted of GM-CSF (200 pg/mL), G-CSF (1 ng/mL); SCF (200 pg/mL); LIF (50 pg/mL), MIP-1α (200 pg/mL) and IL-6 (1 ng/mL).
# (§2) Primitive AML and CML subpopulations (CD34^+ cells) were identified using CD34-PE in combination with CD38-APC, and followed by double-labeling with 7AAD and Annexin V antibodies for apoptosis assessment. The CD34^+ cells were first stained with antibodies against the surface markers CD34-PE and CD38-APC (Beckman Coulter, Fullerton, Calif.) and incubated at room temperature for 15 minutes. Cells were then washed with cold PBS and resuspended in 200 μL annexin V 1×binding buffer (10 mM HEPES/NaOH, pH 7.4, 140 mM NaCl, 2.5 mM CaCl2), 5 μL AnnexinV-FITC (BD Phanningen, San Diego, Calif.) and 7-aminoactinomycin (7-AAD, 0.25 mg/mL) (Molecular Probes, Eugene, Oreg.). Subsequently, the samples were incubated at room temperature for 15 minutes and analyzed by flow cytometry.
# Primary acute leukemia cells from specimens including AML and ALL are mostly quiescent, especially for the subpopulations of leukemic CD34^+ cells (Guan and Hogge, 2000). To verify if this quiescent leukemia cells are sensitive to fenretinide, we compared the effects of fenretinide on primary leukemia versus normal specimens during short-term suspension culture. CD34^+ cells were isolated from primary acute leukemia specimens, and subjected to DNA content analysis through propidium iodide staining and followed by flow cytometry. The majority of isolated CD34^+ cells from AML and ALL were in G0/G1 phase of the cell cycle, indicating the quiescent feature of leukemia CD34^+ cells (FIG. 4A). Then, apoptosis profiles of AML CD34^+ cells and normal CD34^+ cells were examined through annexin-V FITC and 7AAD double staining (FIG. 4B).
# [4] = test system: CD34+CD38− CML stem cells (LSC); experiment: Apoptosis (Annexin V/7AAD, FACS) of CML stem cells; assay type: cell-based, human
# Source text: as §1, §2
# It would be of significance to find out the subpopulations specifically targeted by fenretinide. We divided the CML patient specimens into mononuclear cells and CD34^+ cells. The CD34^+ CML cells are primitive cells including CML stem and progenitor cells. Upon treated with fenretinide, CD34^+ CML cells were further subdivided into CD34^+CD38^− enriched with CML stem cells and CD34^+CD38^+ with CML progenitor cells. After gating on primitive CML subfractions, 7AAD and Annexin V antibodies were utilized for apoptosis assessment by FACS. […] The difference of apoptosis rates between CD34^+CD38^+ and CD34^+CD38^− cells was significant (p<0.001). The effects of the fenretinide exposures on the leukemia stem cells (LSC) and normal hematopoietic stem cells (HSC) in the CD34^+CD38^− cells were shown in a representative specimen (FIG. 3B). The specimens in 5 CML patients had the similar effects on the LSC and in 5 non-leukemic donors had the similar patterns as that of nonnal HSC.
compound,measurement,setting,value
"CC1=C(/C=C/C(C)=C/C=C/C(C)=C/C(=O)Nc2ccc(O)cc2)C(C)(C)CCC1 [fenretinide, N-(4-hydroxyphenyl)retinamide]",protein levels of NRF2 and HSF1 in nuclear extracts,[1],markedly elevated
same,expression of genes involved in oxidative and ER stress,[2],highly up-regulated
same,viability of normal hematopoietic CD34+ cells,[3]; 5 μM fenretinide,97.1%
same,viability of normal hematopoietic CD34+ cells,[3]; 7.5 μM fenretinide,58.1%
same,safe dose (presumed),[3]; from viability of normal CD34+ cells,below 5 μM
same,response of normal hematopoietic CD34+ cells,[3]; short-term suspension culture,relative resistant
same,apoptosis of CD34+CD38− cells,[4]; 2 μM fenretinide,60.58%±2.76%
same,apoptosis of CD34+CD38− cells,[4]; 4 μM fenretinide,63.75%±8.49%
same,apoptosis of CD34+CD38− cells,[4]; 6 μM fenretinide,62.83%±9.72%
same,reduction of LSC in the CD34+CD38− cells,[4]; representative specimen,80.3%
same,apoptosis in the LSC (CML stem cells),"[4]; representative specimen, fenretinide alone or co-treatment with imatinib",53.3%
